Measurements: patent US5929099A, “Pharmaceutical composition for inhibiting the growth of cancers” (Procter & Gamble Co., priority 1996, dated 1999)
≈ marks a conversion by molar mass, not a printed value. Where two headings read alike, the source gives them in different places.

Key:
[1] = tested on: HIV-1 in chronic infected U1 cells (HIV monocytes); test: HIV chronic study, monocyte HIV replication; type: cell-based; conditions: Human immunodeficiency virus 1, Monocyte; 60 μg/ml; read-out: suppressed replication in the HIV monocytes
Procedure: (§1) These cells were treated with test samples.

[2] = tested on: HIV-1 in chronic infected ACH-2 cells (T-cell); test: HIV chronic study, T-cell HIV replication; type: cell-based; conditions: Human immunodeficiency virus 1, ACH-2; 60 μg/ml; increase; read-out: T-cell HIV replication was increased
Procedure: as §1

[3] = tested on: colon tumor cells (HT-29); test: Related study, colon tumor cells, optical density (Table 3); type: cell-based, human; conditions: for Optical Density: 0-Control 0.398
Source text: (§2) Table 3 summarizes the results

HIV = test: In vitro acute model for HIV, viral replication; type: cell-based; conditions: read-out: inhibited viral replication
Procedure: In an in vitro acute model for HIV carbendazim inhibited viral replication by 100% at 4 μg/ml and AZT inhibited viral replication by 98% at 1 μg/ml. Thiabendazole inhibited viral replication by 98% at 60 μg/ml.

[4] = tested on: breast tumor cells (MCF-7); test: Related study, breast tumor cells, optical density (Table 3); type: cell-based; conditions: for Optical Density: 0-Control 0.245
Source text: as §2

lung tumor cells (A-549) = test: Related study, lung tumor cells, optical density (Table 3); type: cell-based, human; conditions: for Optical Density: 0-Control 0.600
Source text: as §2

normal healthy cells = test: Toxicity to normal healthy cells, overall comparison; type: cell-based; conditions: versus adriamycin
Source text: (§3) In normal healthy cells, the following results were obtained.

[5] = Toxicity to normal healthy cells (Table 2); type: cell-based; conditions: read-out: EC-50 (the source's name)
Source text: The EC50 is the concentration at which one half of the cells are killed.
as §3

MX1 breast tumor cells = test: MTT cell viability, breast tumor cells (Table 1); type: cell-based; conditions: Homo sapiens, 120 h, approx. 5 days, read-out: EC-50 Result
Procedure: (§4) The following cell culture tests were performed to test the toxicity of the benzimidazole compounds on colon, breast and lung human tumor cells. The viability of the cells were tested by looking at MTT (3-[4,5-dimethylthiazol-2-yl]-2,5-diphenyltetrazolium bromide) reduction. MTT assay is a well known measure of cell viability.
(§5) The colon tumor cells (HT29 from American Type Culture Collection (ATCC)) and the breast cells (MX1 from cell lines from ATCC) were cultured in Eagle's Miminal Essential Medium with 10% fetal bovine serum. The lung tumor cells (A549 from ATCC cell lines) were cultured in Ham's F12 medium with 10% fetal bovine serum.
(§6) The tumor cells were passaged and seeded into culture flasks at the desired cell densities. The culture medium was decanted and the cell sheets were washed twice with phosphate buffered saline (PBS). The cells were trypsinized and triturated prior to seeding the flasks. Unless otherwise indicated the cultures were incubated at 37±1° C. in a humidified atmosphere of 5±1% carbon dioxide in air. The cultures were incubated until they were 50-80% confluent.
(§7) The cells were subcultured when the flasks were subconfluent. The medium was aspirated from the flasks and the cell sheets rinsed twice with PBS. Next, the Trypsin Solution was added to each flask to cover the cell sheet. The Trypsin Solution was removed after 30-60 seconds and the flasks were incubated at room temperature for two to six minutes. When 90% of the cells became dislodged, growth medium was added. The cells were removed by trituration and transferred to a sterile centrifuge tube. The concentration of cells in the suspension was determined, and an appropriate dilution was made to obtain a density of 5000 cells/ml. The cells were subcultured into the designated wells of the 96-well bioassay plates (200 microliter cell suspension per well). PBS was added to all the remaining wells to maintain humidity. The plates were then incubated overnight before test article treatment.
(§8) Each dose of test article was tested by treating quadruplicate wells of cultures with 100 microliter of each dilution. Those wells designated as solvent controls received an additional 100 microliter of methanol control; negative controls wells received an additional 100 microliters of treatment medium. PBS was added to the remaining wells not treated with test article or medium. The plates were then incubated for approximately 5 days.
(§9) At the end of the 5 day incubation, each dose group was examined microscopically to assess toxicity. A 0.5 mg/ml dilution of MTT was made in treatment medium, and the dilution was filtered through a 0.45 micrometer filter to remove undissolved crystals. The medium was decanted from the wells of the bioassy plates. Immediately thereafter, […] of the filtered MTT solution was added to all test wells except for the two untreated blank test wells. The two blank wells received 200 microliters of treatment medium. The plates were returned to the incubator for about 3 hours. After incubation, the MTT containing medium was decanted. […] was added to each well and the plates were shaken at room temperature for about 2 hours.
(§10) The absorbance at 550 mn (OD550) of each well was measured with a Molecular Devices (Menlo Park, Calif.) VMax plate reader.
(§11) The mean OD550 of the solvent control wells and that of each test article dilution, and that of each of the blank wells and the positive control were calculated. The mean OD550 of the blank wells was subtracted from the mean of the solvent control wells, and test article wells, respectively to give the corresponding mean OD550. [formula]
(§12) Dose response curves were prepared as semi-log plots with % of control on the ordinate (linear) and the test article concentration on the abscissa (logarithmic). The EC50 was interpolated from the plots for each test article.
(§13) For the test articles administered in methanol, separate responses were prepared to correct for the methanol data. […]

HT29 colon tumor cells = test: MTT cell viability, colon tumor cells (Table 1); type: cell-based; conditions: Homo sapiens, HT-29, 120 h, approx. 5 days, read-out: EC-50 Result
Procedure: as §4, §5, §6, §7, §8, §9, §10, §11, §12, §13

A549 lung tumor cells = test: MTT cell viability, lung tumor cells (Table 1); type: cell-based; conditions: Homo sapiens, A549, 120 h, approx. 5 days, read-out: EC-50 Result
Procedure: as §4, §5, §6, §7, §8, §9, §10, §11, §12, §13

leukemia, P388 = test: In vivo mouse model for leukemia, life span
HT29 tumors = test: Mouse model for colon cancer, subcutaneous tumor growth; type: in vivo; conditions: 2500 mg/kg; HT29 implanted subcutaneously; screening test
Procedure: (§14) In a mouse model for breast, lung and colon cancer Carbendazim slowed tumor growth. MX1 breast cancer tumors implanted subcutaneously under the mice skin were treated with 500 mg/kg of Carbendazim. Tumor growth was slowed by 42%. Carbendazim slowed tumor growth in lung A549 tumors implanted subcutaneously under the mice skin by 57% at the same dose. In a screening test of HT29 tumors implanted subcutaneously under the mice skin, tumor growth was slowed 54% at 2500 mg/kg dose of Carbendazim.

lung A549 tumors = test: Mouse model for lung cancer, subcutaneous tumor growth; type: in vivo; conditions: same dose (500 mg/kg); A549 implanted subcutaneously
Procedure: as §14

melanoma, B 16 = test: In vivo mouse model for melanoma, life span
MX1 breast cancer tumors = test: Mouse model for breast cancer, subcutaneous tumor growth; type: in vivo; conditions: 500 mg/kg; MX1 implanted subcutaneously
Procedure: as §14

[6] = bronchial cells, Broncheal Cells, first value
[7] = bronchial cells, Broncheal Cells, second value
[8] = kerotinoyle cells, second value

## c1ccc2[nH]c(-c3cscn3)nc2c1 [Thiabendazole, 2-(4-thiazolyl)-1 H-benzimidazole]
[1]
  inhibition at 60 µg/mL: 74%
[2]
  activation at 60 µg/mL: 26%
[3]
  killing of tumor cells: effectively killed these cells
[3]; 0.87 ppm
  Optical Density: 0.852
[3]; 3.46 ppm
  Optical Density: 0.713
[3]; 17.3 ppm
  Optical Density: 0.204
[3]; 35 ppm
  Optical Density: 0.011
[3]; 173 ppm
  Optical Density: 0.005
HIV; Human immunodeficiency virus 1, 60 μg/ml
  inhibition at 60 µg/mL: 98%
[4]
  killing of tumor cells: effectively killed these cells
[4]; 0.87 ppm
  Optical Density: 0.507
[4]; 3.46 ppm
  Optical Density: 0.466
[4]; 17.3 ppm
  Optical Density: 0.258
[4]; 35 ppm
  Optical Density: 0.025
[4]; 173 ppm
  Optical Density: 0.007
Lung tumor cells (A-549)
  killing of tumor cells: effectively killed these cells
Lung tumor cells (A-549); 0.87 ppm
  Optical Density: 1.32
Lung tumor cells (A-549); 3.46 ppm
  Optical Density: 1.12
Lung tumor cells (A-549); 17.3 ppm
  Optical Density: 0.851
Lung tumor cells (A-549); 35 ppm
  Optical Density: 0.411
Lung tumor cells (A-549); 173 ppm
  Optical Density: 0.007

## CCCCNC(=O)n1c(NC(=O)OC)nc2ccccc21 [benomyl, methyl 1-(butylcarbamoyl)2-benzimidazolecarbamate]
Normal healthy cells
  toxicity to normal healthy cells relative to adriamycin: much less toxic to normal healthy cells than adriamycin
[5]; [6]
  CC50: 0.728 µg/mL (≈ 2.51 µM)
[5]; [7]
  CC50: 0.682 µg/mL (≈ 2.35 µM)
[5]; fibroblasts, first value
  CC50: 3.24 µg/mL (≈ 11.2 µM)
[5]; fibroblasts, second value
  CC50: 2.81 µg/mL (≈ 9.68 µM)
[5]; kerotinoyle cells, first value
  CC50: 3.26 µg/mL (≈ 11.2 µM)
[5]; [8]
  CC50: 2.4 µg/mL (≈ 8.27 µM)
MX1 breast tumor cells; MX1, first column
  IC50: 1.42 µg/mL (≈ 4.89 µM)
MX1 breast tumor cells; MX1, second column
  IC50: 2.42 µg/mL (≈ 8.34 µM)
HT29 colon tumor cells; HT29, first column
  IC50: 0.742 µg/mL (≈ 2.56 µM)
HT29 colon tumor cells; HT29, second column
  IC50: 0.747 µg/mL (≈ 2.57 µM)
A549 lung tumor cells; A549, first column
  IC50: 0.98 µg/mL (≈ 3.38 µM)
A549 lung tumor cells; A549, second column
  IC50: 1.02 µg/mL (≈ 3.51 µM)

## COC(=O)Nc1nc2ccccc2[nH]1 [carbendazim, methyl 2-benzimidazole carbamate]
Normal healthy cells
  toxicity to normal healthy cells relative to adriamycin: much less toxic to normal healthy cells than adriamycin
leukemia, P388; 1000 mg/kg
  increased the life span of the mice versus control: 129%
leukemia, P388; 2000 mg/kg
  increased the life span of the mice versus control: 148%
leukemia, P388; 4000 mg/kg
  increased the life span of the mice versus control: 189%
HT29 tumors
  tumor growth was slowed: 54%
Lung A549 tumors
  slowed tumor growth by: 57%
melanoma, B 16; 1000 mg/kg
  increased the life span versus control: 131%
melanoma, B 16; 2000 mg/kg
  increased the life span versus control: 163%
melanoma, B 16; 4000 mg/kg
  increased the life span versus control: 187%
[5]; [6]
  CC50: 0.32 µg/mL (≈ 1.67 µM)
[5]; [7]
  CC50: 0.506 µg/mL (≈ 2.65 µM)
[5]; fibroblasts, first value
  CC50: 1.52 µg/mL (≈ 7.95 µM)
[5]; fibroblasts, second value
  CC50: 1.42 µg/mL (≈ 7.43 µM)
[5]; kerotinoyle cells, first value
  CC50: 0.752 µg/mL (≈ 3.93 µM)
[5]; [8]
  CC50: 0.822 µg/mL (≈ 4.3 µM)
HIV; Human immunodeficiency virus 1, 4 μg/ml
  inhibition at 4 µg/mL: 100%
MX1 breast tumor cells; MX1, first column
  IC50: 0.829 µg/mL (≈ 4.34 µM)
MX1 breast tumor cells; MX1, second column
  IC50: 0.856 µg/mL (≈ 4.48 µM)
MX1 breast cancer tumors
  Tumor growth was slowed by: 42%
HT29 colon tumor cells; HT29, first column
  IC50: 0.621 µg/mL (≈ 3.25 µM)
HT29 colon tumor cells; HT29, second column
  IC50: 0.662 µg/mL (≈ 3.46 µM)
A549 lung tumor cells; A549, first column
  IC50: 0.856 µg/mL (≈ 4.48 µM)
A549 lung tumor cells; A549, second column
  IC50: 0.836 µg/mL (≈ 4.37 µM)
